From ChEMBL document CHEMBL1201862, “PubChem BioAssay data set” (2004)
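Compound exposure: 48 hours, 5 concentrations, 96-well plates. Abbreviation: GI50, concentration required for 50% inhibition of growth.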 The source made the active and inactive calls. No stated cut-off is given here; in the data, active = GI50 up to about 1.1 µM and inactive = higher.

Legend:
Test in all cases: NCI anticancer screen, dose series, 48 h
SNB-19 = tested on: SNB-19
HCC 2998 = tested on: HCC 2998
COLO 205 = tested on: COLO 205
LOX IMVI = tested on: LOX IMVI
SF-295 = tested on: SF-295
SN12C = tested on: SN12C
IGROV-1 = tested on: IGROV-1
K562 = tested on: K562
KM12 = tested on: KM12
HCT-116 = tested on: HCT-116
NCI-H522 = tested on: NCI-H522
NCI-H460 = tested on: NCI-H460
SK-MEL-28 = tested on: SK-MEL-28
A549 = tested on: A549
SW-620 = tested on: SW-620
MOLT-4 = tested on: MOLT-4
RPMI-8226 = tested on: RPMI-8226
UO-31 = tested on: UO-31
NCI-H226 = tested on: NCI-H226

| Compound | GI50 (SNB-19) | GI50 (HCC 2998) | GI50 (COLO 205) | GI50 (LOX IMVI) | GI50 (SF-295) | GI50 (SN12C) | GI50 (IGROV-1) | GI50 (K562) | GI50 (KM12) | GI50 (HCT-116) | GI50 (NCI-H522) | GI50 (NCI-H460) | GI50 (SK-MEL-28) | GI50 (A549) | GI50 (SW-620) | GI50 (MOLT-4) | GI50 (RPMI-8226) | GI50 (UO-31) | GI50 (NCI-H226) |
| --- | --- | --- | --- | --- | --- | --- | --- | --- | --- | --- | --- | --- | --- | --- | --- | --- | --- | --- | --- |
| COc1cc(-c2cc(=O)c3cc(C)c(C)c(C(=O)O)c3o2)cc(OC)c1OC | > 100 µM (inactive) | > 100 µM (inactive) | > 100 µM (inactive) | > 100 µM (inactive) | > 100 µM (inactive) | > 100 µM (inactive) | > 100 µM (inactive) | > 100 µM (inactive) | > 100 µM (inactive) | > 100 µM (inactive) | 67.6 µM (inactive) | > 100 µM (inactive) | > 100 µM (inactive) | > 100 µM (inactive) | > 100 µM (inactive) | > 100 µM (inactive) | > 100 µM (inactive) | > 100 µM (inactive) |  |
| COc1cc2oc(-c3ccc4c(c3)OCO4)c(OC)c(=O)c2c(OC)c1OC | 44.3 µM (inactive) | > 100 µM (inactive) | > 100 µM (inactive) | > 100 µM (inactive) | > 100 µM (inactive) | > 100 µM (inactive) | 67.9 µM (inactive) | > 100 µM (inactive) | > 100 µM (inactive) | > 100 µM (inactive) | > 100 µM (inactive) | > 100 µM (inactive) | > 100 µM (inactive) | > 100 µM (inactive) | > 100 µM (inactive) | > 100 µM (inactive) |  | > 100 µM (inactive) | > 100 µM (inactive) |
| S=C(NCc1ccccc1)c1nc[nH]c1C(=S)NCc1ccccc1 | 5.4 µM (inactive) | 10 µM (inactive) | 3.48 µM (inactive) | 4.72 µM (inactive) | 4.57 µM (inactive) | 11.7 µM (inactive) | 5.08 µM (inactive) | 4.4 µM (inactive) | 6.07 µM (inactive) | 5.64 µM (inactive) | 3.58 µM (inactive) | 4.06 µM (inactive) | 12.4 µM (inactive) | 3.89 µM (inactive) | 4.98 µM (inactive) | 4.85 µM (inactive) | 5.19 µM (inactive) |  | 1.78 µM (inactive) |
| CC(=O)O[C@H]1CCC2[C@@H]3CCC4=C(O)c5nocc5C[C@]4(C)C3CC[C@@]21C (stereo not given in full) | > 100 µM (inactive) |  | > 100 µM (inactive) | > 100 µM (inactive) | > 100 µM (inactive) | > 100 µM (inactive) | > 100 µM (inactive) | > 100 µM (inactive) | > 100 µM (inactive) | > 100 µM (inactive) | > 100 µM (inactive) | > 100 µM (inactive) | > 100 µM (inactive) | > 100 µM (inactive) | > 100 µM (inactive) | > 100 µM (inactive) | > 100 µM (inactive) | > 100 µM (inactive) | > 100 µM (inactive) |
| COc1cc2c3c([nH]c2c(OC)c1OC)CCN(Cc1ccccc1)C3 | 3.07 µM (inactive) | 17.9 µM (inactive) | 17 µM (inactive) | 16.3 µM (inactive) | 30.8 µM (inactive) | 45.6 µM (inactive) | 57.7 µM (inactive) | 20.2 µM (inactive) | > 100 µM (inactive) | 33.9 µM (inactive) | > 100 µM (inactive) | 14.9 µM (inactive) | 21.6 µM (inactive) | 86.7 µM (inactive) | 1.95 µM (inactive) | 25.1 µM (inactive) | 18.5 µM (inactive) |  | 20.9 µM (inactive) |
| CNc1ccc(N)cc1C(=O)N1CCC[C@H]1CO | > 100 µM (inactive) |  | > 100 µM (inactive) | > 100 µM (inactive) | > 100 µM (inactive) | > 100 µM (inactive) | > 100 µM (inactive) |  | > 100 µM (inactive) | > 100 µM (inactive) | > 100 µM (inactive) |  | > 100 µM (inactive) | > 100 µM (inactive) | > 100 µM (inactive) | > 100 µM (inactive) |  | > 100 µM (inactive) | > 100 µM (inactive) |
| O=c1[nH]nc(Cc2c[nH]c3ccccc23)o1 | > 100 µM (inactive) | > 100 µM (inactive) | > 100 µM (inactive) | > 100 µM (inactive) | > 100 µM (inactive) | > 100 µM (inactive) | > 100 µM (inactive) | > 100 µM (inactive) | > 100 µM (inactive) | > 100 µM (inactive) | > 100 µM (inactive) |  | > 100 µM (inactive) | > 100 µM (inactive) | > 100 µM (inactive) | > 100 µM (inactive) | > 100 µM (inactive) | > 100 µM (inactive) | > 100 µM (inactive) |
| O=C1NC(=S)NC(=O)C1C(c1ccc(Cl)cc1)C1C(=O)NC(=S)NC1=O.c1ccncc1 | > 100 µM (inactive) |  | > 100 µM (inactive) | > 100 µM (inactive) | > 100 µM (inactive) | > 100 µM (inactive) | > 100 µM (inactive) | > 100 µM (inactive) | > 100 µM (inactive) | > 100 µM (inactive) | > 100 µM (inactive) | > 100 µM (inactive) | > 100 µM (inactive) | > 100 µM (inactive) | > 100 µM (inactive) | > 100 µM (inactive) | > 100 µM (inactive) | > 100 µM (inactive) | > 100 µM (inactive) |
| CCC(C)[C@H](NC(=O)[C@H](Cc1ccccc1)NC(=O)N(CC)c1ccccc1)C(=O)N[C@@H](CC(C)C)C(=O)OC (stereo not given in full) | 35.4 µM (inactive) | 42.2 µM (inactive) | 60.1 µM (inactive) | 30.9 µM (inactive) | 59.7 µM (inactive) | 38.6 µM (inactive) | 20.4 µM (inactive) |  | 22 µM (inactive) | 32.4 µM (inactive) |  |  | 40.3 µM (inactive) | 52.5 µM (inactive) | 31.6 µM (inactive) | 10.7 µM (inactive) | 8.93 µM (inactive) | 24.3 µM (inactive) | 18 µM (inactive) |
| COc1ccc2c(c1)C1Oc3ccccc3CC1CO2 (stereo not given) | > 100 µM (inactive) | 19.7 µM (inactive) | 53.1 µM (inactive) | 47.2 µM (inactive) | 76.4 µM (inactive) | 35.4 µM (inactive) | > 100 µM (inactive) | 52.2 µM (inactive) | 37.2 µM (inactive) | 44.7 µM (inactive) | 45 µM (inactive) | 96.8 µM (inactive) |  | 55.3 µM (inactive) | 63.1 µM (inactive) | 21.5 µM (inactive) | 25.6 µM (inactive) | 22.3 µM (inactive) | > 100 µM (inactive) |
| CC(C)(C)OC(=O)NCCCCC(NC(=O)c1ccccc1)C(N)=O (stereo not given) | > 100 µM (inactive) |  | > 100 µM (inactive) | > 100 µM (inactive) | > 100 µM (inactive) | > 100 µM (inactive) |  | 54.7 µM (inactive) | > 100 µM (inactive) | > 100 µM (inactive) | > 100 µM (inactive) | > 100 µM (inactive) | > 100 µM (inactive) | > 100 µM (inactive) | > 100 µM (inactive) | 46.6 µM (inactive) | > 100 µM (inactive) | > 100 µM (inactive) | > 10 µM (inactive) |
| Cn1ccnc1Oc1ccc(Cl)cc1 | 33 µM (inactive) | 4.57 µM (inactive) | 13 µM (inactive) | 13.2 µM (inactive) |  | 13.6 µM (inactive) |  | 13.7 µM (inactive) |  | 12 µM (inactive) | 2.28 µM (inactive) | 30.3 µM (inactive) | 14.4 µM (inactive) | 34.2 µM (inactive) | 13 µM (inactive) | 2.38 µM (inactive) | 0.49 µM (active) | 11.7 µM (inactive) | 13 µM (inactive) |
| O=c1[nH]nc(Cc2ccc(Cl)cc2)n1Nc1ccccc1 | > 100 µM (inactive) | > 100 µM (inactive) | > 100 µM (inactive) | > 100 µM (inactive) | > 100 µM (inactive) | > 100 µM (inactive) | > 100 µM (inactive) | > 100 µM (inactive) | > 100 µM (inactive) | > 100 µM (inactive) |  | > 100 µM (inactive) | > 100 µM (inactive) | > 100 µM (inactive) | > 100 µM (inactive) | > 100 µM (inactive) |  | > 100 µM (inactive) | > 100 µM (inactive) |
| C[C@@H]1CCC2C(C)(C)C(/C=C\C=O)C3(C)OC213 (stereo not given in full) | 45.4 µM (inactive) | 48.5 µM (inactive) | 25.4 µM (inactive) |  | 35.1 µM (inactive) |  | 24.6 µM (inactive) | 33.6 µM (inactive) | 36.1 µM (inactive) | 27.9 µM (inactive) | 46 µM (inactive) | 42 µM (inactive) | 44 µM (inactive) | > 100 µM (inactive) | 40.9 µM (inactive) | 31.8 µM (inactive) | 28.7 µM (inactive) | 52.5 µM (inactive) |  |
| CCOC(=O)c1nnsc1N/N=C\c1ccc([N+](=O)[O-])cc1 | 70.1 µM (inactive) | > 100 µM (inactive) | > 100 µM (inactive) |  | > 100 µM (inactive) | > 100 µM (inactive) | > 100 µM (inactive) | > 100 µM (inactive) | > 100 µM (inactive) | > 100 µM (inactive) | > 100 µM (inactive) | > 100 µM (inactive) | > 100 µM (inactive) | > 100 µM (inactive) | > 100 µM (inactive) | > 100 µM (inactive) | > 100 µM (inactive) | > 100 µM (inactive) | > 100 µM (inactive) |
| CN(C)Cc1cc(/C=C/C(=O)c2ccc(Br)cc2)cc(CN(C)C)c1O | 20.3 µM (inactive) | 14 µM (inactive) | 14.6 µM (inactive) |  | 21.8 µM (inactive) | 15.6 µM (inactive) | 8.95 µM (inactive) | 25.1 µM (inactive) | 13.4 µM (inactive) | 14.8 µM (inactive) |  | 19.3 µM (inactive) | 17.1 µM (inactive) | 29.2 µM (inactive) | 19.1 µM (inactive) | 9.95 µM (inactive) | 3.54 µM (inactive) | 10.7 µM (inactive) |  |
